For the test, the target named is T1, human 4lg B7-H3 (Homo sapiens, UniProt Q5ZPR3).
T1 sequence (Q5ZPR3 29-534): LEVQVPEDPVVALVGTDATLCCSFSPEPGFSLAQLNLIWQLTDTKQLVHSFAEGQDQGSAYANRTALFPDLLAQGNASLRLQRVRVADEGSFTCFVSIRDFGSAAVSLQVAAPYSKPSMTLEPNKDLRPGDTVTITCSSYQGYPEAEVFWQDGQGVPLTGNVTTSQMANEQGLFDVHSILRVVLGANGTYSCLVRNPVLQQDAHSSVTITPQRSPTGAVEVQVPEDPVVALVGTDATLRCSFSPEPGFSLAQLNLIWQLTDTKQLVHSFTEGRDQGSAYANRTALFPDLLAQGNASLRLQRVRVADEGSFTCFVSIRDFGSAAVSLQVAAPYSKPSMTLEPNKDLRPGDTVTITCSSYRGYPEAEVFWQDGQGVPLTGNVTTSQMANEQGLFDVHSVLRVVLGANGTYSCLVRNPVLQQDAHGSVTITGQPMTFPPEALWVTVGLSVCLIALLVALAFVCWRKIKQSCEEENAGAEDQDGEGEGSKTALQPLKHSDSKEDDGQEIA
Put plainly: Affinity determination by surface plasmon resonance (SPR) to 4Ig B7-H3. On the technique in general: Surface plasmon resonance follows binding to a sensor surface in real time, without labels.

Setting [1] is: SPR KD—25° C., 4Ig B7-H3, 25° C. flow cell temperature.
Setting [2] is: SPR KD—37° C., 4Ig B7-H3, 37° C. flow cell temperature.

Where two headings read alike, the source gives them in different places. Starred links: 1 amine or outer side, 2 acyl side, 3 side chain; linkers in the order of their positions; H or OH if unused. Positions of bridges follow the written chain, without caps; N, C: chain ends. Non-standard residues stand in square brackets, D forms with d. Residues, ends and D or L forms follow the SMILES beside them. *: point of attachment. Ala(1-CH2CO2H-4-piperidyl) = N[C@@H](CC1CCN(CC(=O)O)CC1)C(=O)O; Ala(piperidin-4-yl) = O=C([C@H](CC1CCN([*:3])CC1)N[*:1])[*:2]; DOTA = O=C(O)CN1CCN(CC(=O)O)CCN(CC(=O)*)CCN(CC(=O)O)CC1; Tyr(SO2F) = N[C@@H](Cc1ccc(OS(=O)(=O)F)cc1)C(=O)O; Phe(4-COOH) = N[C@@H](Cc1ccc(C(=O)O)cc1)C(=O)O; Trp(5-F) = N[C@@H](Cc1c[nH]c2ccc(F)cc12)C(=O)O; Phe(3-Cl) = N[C@@H](Cc1cccc(Cl)c1)C(=O)O; Phe(4-F) = N[C@@H](Cc1ccc(F)cc1)C(=O)O; Ala(4-THP) = N[C@@H](CC1CCOCC1)C(=O)O; Val(3-OH) = CC(C)(O)[C@H](N)C(=O)O; Aad = N[C@@H](CCCC(=O)O)C(=O)O; Cha = N[C@@H](CC1CCCCC1)C(=O)O; Tle = CC(C)(C)[C@H](N)C(=O)O; hLeu = CC(C)CC[C@H](N)C(=O)O; NMeS = CN[C@@H](CO)C(=O)O; Nle = CCCC[C@H](N)C(=O)O Where only a bound is given, the exact number is not on record here.

`CCCC[C@H](NC(C)=O)C(=O)N[C@@H](Cc1ccc(O)cc1)C(=O)N[C@H]1CSSC[C@@H](C(=O)N[C@@H](Cc2c[nH]c3ccccc23)C(=O)N[C@@H](Cc2ccccc2)C(=O)N[C@H](C(=O)N[C@H](CCCCNC(=O)CN2CCN(CC(=O)O)CCN(CC(=O)O)CCN(CC(=O)O)CC2)C(=O)O)[C@@H](C)O)NC(=O)[C@H](Cc2ccc(O)cc2)NC(=O)[C@H](C(C)C)NC(=O)[C@H](CCCC(=O)O)NC(=O)[C@H](Cc2ccc(O)cc2)NC(=O)[C@H](CCCCN)NC(=O)CNC(=O)[C@H](C(C)C)NC1=O` [compound 102, Ac-Nle-Y-C-V-G-K-Y-HomoGlu-V-Y-C-W-F-Thr-dLys(DOTA)-COOH] (Ac-[Nle]YCVGKY[Aad]VYCWFT[dK](DOTA)-OH; disulfide 3-11): the Kd (in general, the concentration at which binding is half-saturated) under setting [1] fell in the range of 100 to 300 nM. The same measure, in the same setting: with `CC(=O)N[C@@H](CCC(C)C)C(=O)N[C@@H](Cc1ccc(O)cc1)C(=O)N[C@H]1CSSC[C@@H](C(=O)N[C@@H](Cc2c[nH]c3ccc(F)cc23)C(=O)N[C@@H](Cc2ccccc2)C(=O)N(C)[C@@H](CO)C(N)=O)NC(=O)[C@H](Cc2ccc(O)cc2)NC(=O)[C@H](C(C)C)NC(=O)[C@H](CC(=O)O)NC(=O)[C@H](CC2CCCCC2)NC(=O)[C@H](CCCCNC(=O)CN2CCN(CC(=O)O)CCN(CC(=O)O)CCN(CC(=O)O)CC2)NC(=O)CNC(=O)[C@H](C(C)C)NC1=O` [compound 233, Ac-hLeu-Y-C-V-G-Lys(DOTA)-CHA-D-V-Y-C-5FW-F-NMeSer-CONH2] (Ac-[hLeu]YCVGK(DOTA)[Cha]DVYC[Trp(5-F)]F[NMeS]-NH2; disulfide 3-11) the figure was 10 to 100 nM. Turning to `CC(=O)N[C@@H](CCC(C)C)C(=O)N[C@@H](Cc1ccc(O)cc1)C(=O)N[C@H]1CSSC[C@@H](C(=O)N[C@@H](Cc2c[nH]c3ccc(F)cc23)C(=O)N[C@@H](Cc2cccc(Cl)c2)C(=O)N[C@H](C(=O)N[C@H](CCCCNC(=O)CN2CCN(CC(=O)O)CCN(CC(=O)O)CCN(CC(=O)O)CC2)C(=O)O)C(C)(C)O)NC(=O)[C@H](Cc2ccc(O)cc2)NC(=O)[C@H](C(C)C)NC(=O)[C@H](CC(=O)O)NC(=O)[C@H](CC2CCOCC2)NC(=O)[C@H](CC2CCNCC2)NC(=O)CNC(=O)[C@H](C(C)(C)C)NC1=O` [compound 430, Ac-hLeu-Y-C-Tbg-G-PipAla-ThpA-D-V-Y-C-5FW-3CIPhe-hydroxyVal-dLys(DOTA)-COOH] (Ac-[hLeu]YC[Tle]G[Ala(piperidin-4-yl)][Ala(4-THP)]DVYC[Trp(5-F)][Phe(3-Cl)][Val(3-OH)][dK](DOTA)-OH; disulfide 3-11), the Kd under setting [2] is less than 1 nM. On the same count and under the same terms, to `CC(=O)N[C@@H](CCC(C)C)C(=O)N[C@@H](Cc1ccc(O)cc1)C(=O)N[C@H]1CSSC[C@@H](C(=O)N[C@@H](Cc2c[nH]c3ccc(F)cc23)C(=O)N[C@@H](Cc2ccccc2)C(=O)N[C@H](C(N)=O)C(C)(C)O)NC(=O)[C@H](Cc2ccc(O)cc2)NC(=O)[C@H](C(C)C)NC(=O)[C@H](CC(=O)O)NC(=O)[C@H](CC2CCOCC2)NC(=O)[C@H](CCCCN)NC(=O)CNC(=O)[C@H](C(C)(C)C)NC1=O` [compound 404, Ac-hLeu-Y-C-Tbg-G-K-ThpA-D-V-Y-C-5FW-F-hydroxyVal-CONH2] (Ac-[hLeu]YC[Tle]GK[Ala(4-THP)]DVYC[Trp(5-F)]F[Val(3-OH)]-NH2; disulfide 3-11) belongs 1 to 10 nM. `CC(=O)N[C@@H](CCC(C)C)C(=O)N[C@@H](Cc1ccc(F)cc1)C(=O)N[C@H]1CSSC[C@@H](C(=O)N[C@@H](Cc2c[nH]c3ccc(F)cc23)C(=O)N[C@@H](Cc2ccccc2)C(=O)N[C@H](C(=O)N[C@H](CCCCNC(=O)CN2CCN(CC(=O)O)CCN(CC(=O)O)CCN(CC(=O)O)CC2)C(N)=O)[C@@H](C)O)NC(=O)[C@H](Cc2ccc(O)cc2)NC(=O)[C@H](C(C)C)NC(=O)[C@H](CC(=O)O)NC(=O)[C@H](Cc2ccc(O)cc2)NC(=O)[C@H](CCCCN)NC(=O)CNC(=O)[C@H](C(C)C)NC1=O` [compound 192, Ac-hLeu-4FPhe-C-V-G-K-Y-D-V-Y-C-5FW-F-Thr-dLys(DOTA)-CONH2] (Ac-[hLeu][Phe(4-F)]CVGKYDVYC[Trp(5-F)]FT[dK](DOTA)-NH2; disulfide 3-11) came in with a Kd under setting [1] of 1 to 10 nM. As to `CC(=O)N[C@@H](CCC(C)C)C(=O)N[C@@H](Cc1ccc(OS(=O)(=O)F)cc1)C(=O)N[C@H]1CSSC[C@@H](C(=O)N[C@@H](Cc2c[nH]c3ccc(F)cc23)C(=O)N[C@@H](Cc2ccccc2)C(=O)N[C@H](C(=O)N[C@H](CCCCNC(=O)CN2CCN(CC(=O)O)CCN(CC(=O)O)CCN(CC(=O)O)CC2)C(=O)O)C(C)(C)O)NC(=O)[C@H](Cc2ccc(O)cc2)NC(=O)[C@H](C(C)C)NC(=O)[C@H](CC(=O)O)NC(=O)[C@H](CC2CCOCC2)NC(=O)[C@H](CC2CCNCC2)NC(=O)CNC(=O)[C@H](C(C)(C)C)NC1=O` [compound 478, Ac-hLeu-FSY-C-Tbg-G-PipAla-ThpA-D-V-Y-C-5FW-F-hydroxyVal-dLys(DOTA)-COOH] (Ac-[hLeu][Tyr(SO2F)]C[Tle]G[Ala(piperidin-4-yl)][Ala(4-THP)]DVYC[Trp(5-F)]F[Val(3-OH)][dK](DOTA)-OH; disulfide 3-11), the Kd fell in the range of 10 to 100 nM.

For the compound `CCCC[C@H](NC(C)=O)C(=O)N[C@@H](Cc1ccc(O)cc1)C(=O)N[C@H]1CSSC[C@@H](C(=O)N[C@@H](Cc2c[nH]c3ccc(F)cc23)C(=O)N[C@@H](Cc2ccccc2)C(=O)N[C@H](C(N)=O)[C@@H](C)O)NC(=O)[C@H](Cc2ccc(O)cc2)NC(=O)[C@H](C(C)C)NC(=O)[C@H](CC(=O)O)NC(=O)[C@H](Cc2ccc(O)cc2)NC(=O)[C@H](CCCCN)NC(=O)CNC(=O)[C@H](C(C)C)NC1=O` [compound 59, Ac-Nle-Y-C-V-G-K-Y-D-V-Y-C-5FW-F-Thr-CONH2] (Ac-[Nle]YCVGKYDVYC[Trp(5-F)]FT-NH2; disulfide 3-11), under setting [1], the Kd fell in the range of 1 to 10 nM. The same measure, in the same setting: to `CC(=O)N[C@@H](CC(C)C)C(=O)N[C@@H](Cc1ccc(O)cc1)C(=O)N[C@H]1CSSC[C@@H](C(=O)N[C@@H](Cc2c[nH]c3ccccc23)C(=O)N[C@@H](Cc2ccccc2)C(=O)N[C@H](C(=O)N[C@H](CCCCNC(=O)CN2CCN(CC(=O)O)CCN(CC(=O)O)CCN(CC(=O)O)CC2)C(N)=O)[C@@H](C)O)NC(=O)[C@H](Cc2ccc(O)cc2)NC(=O)[C@H](C(C)C)NC(=O)[C@H](CC(=O)O)NC(=O)[C@H](Cc2ccc(O)cc2)NC(=O)[C@H](CCCCN)NC(=O)CNC(=O)[C@H](C(C)C)NC1=O` [compound 56, Ac-Leu-Y-C-V-G-K-Y-D-V-Y-C-W-F-Thr-dLys(DOTA)-CONH2] (Ac-LYCVGKYDVYCWFT[dK](DOTA)-NH2; disulfide 3-11) belongs 10 to 100 nM. Compound `CC(=O)N[C@@H](CCC(C)C)C(=O)N[C@@H](Cc1ccc(O)cc1)C(=O)N[C@H]1CSSC[C@@H](C(=O)N[C@@H](Cc2c[nH]c3ccc(F)cc23)C(=O)N[C@@H](Cc2ccccc2)C(=O)N2CCC[C@H]2C(=O)N[C@H](CCCCNC(=O)CN2CCN(CC(=O)O)CCN(CC(=O)O)CCN(CC(=O)O)CC2)C(N)=O)NC(=O)[C@H](Cc2ccc(O)cc2)NC(=O)[C@H](C(C)C)NC(=O)[C@H](CC(=O)O)NC(=O)[C@H](Cc2ccc(C(=O)O)cc2)NC(=O)[C@H](CC2CCN(CC(=O)O)CC2)NC(=O)CNC(=O)[C@H](C(C)C)NC1=O` [compound 320, Ac-hLeu-Y-C-V-G-[Pip(CH2CO2H)Ala]-4COOHPhe-D-V-Y-C-5FW-F-Pro-dLys(DOTA)-CONH2] (Ac-[hLeu]YCVG[Ala(1-CH2CO2H-4-piperidyl)][Phe(4-COOH)]DVYC[Trp(5-F)]FP[dK](DOTA)-NH2; disulfide 3-11) yielded a Kd under setting [2] of 1 to 10 nM.

Consider `CC(=O)N[C@@H](CCC(C)C)C(=O)N[C@@H](Cc1ccc(O)cc1)C(=O)N[C@H]1CSSC[C@@H](C(=O)N[C@@H](Cc2c[nH]c3ccc(F)cc23)C(=O)N[C@@H](Cc2ccccc2)C(=O)N2CCC[C@H]2C(=O)N[C@H](CCCCNC(=O)CN2CCN(CC(=O)O)CCN(CC(=O)O)CCN(CC(=O)O)CC2)C(=O)O)NC(=O)[C@H](Cc2ccc(O)cc2)NC(=O)[C@H](C(C)C)NC(=O)[C@H](CC(=O)O)NC(=O)[C@H](CC2CCOCC2)NC(=O)[C@H](CCCCN)NC(=O)CNC(=O)[C@H](C(C)(C)C)NC1=O` [compound 304, Ac-hLeu-Y-C-Tbg-G-K-ThpA-D-V-Y-C-5FW-F-Pro-dLys(DOTA)-COOH] (Ac-[hLeu]YC[Tle]GK[Ala(4-THP)]DVYC[Trp(5-F)]FP[dK](DOTA)-OH; disulfide 3-11), for which the Kd under setting [1] lay within 1 to 10 nM. Same read-out and setting: with `CC(=O)N[C@@H](CCC(C)C)C(=O)N[C@@H](Cc1ccc(O)cc1)C(=O)N[C@H]1CSSC[C@@H](C(=O)N[C@@H](Cc2c[nH]c3ccc(F)cc23)C(=O)N[C@@H](Cc2ccccc2)C(=O)N[C@H](C(=O)N[C@H](CCCCNC(=O)CN2CCN(CC(=O)O)CCN(CC(=O)O)CCN(CC(=O)O)CC2)C(N)=O)[C@@H](C)O)NC(=O)[C@H](Cc2ccc(O)cc2)NC(=O)[C@H](C(C)C)NC(=O)[C@H](CC(=O)O)NC(=O)[C@H]([C@@H](C)O)NC(=O)[C@H](CCCCN)NC(=O)CNC(=O)[C@H](C(C)C)NC1=O` [compound 198, Ac-hLeu-Y-C-V-G-K-T-D-V-Y-C-5FW-F-Thr-dLys(DOTA)-CONH2] (Ac-[hLeu]YCVGKTDVYC[Trp(5-F)]FT[dK](DOTA)-NH2; disulfide 3-11) the figure was 1 to 10 nM.
